# From ChEMBL document CHEMBL1949644, “Synthesis and SAR optimization of quinazolin-4(3H)-ones as poly(ADP-ribose)polymerase-1 inhibitors” (Eur J Med Chem, 2012)
# pIC50: −log10 of the molar value.
# Columns and labels:
# [1] = target: T1, Poly [ADP-ribose] polymerase 1 (Homo sapiens, UniProt P09874); assay: Inhibition of PARP1 using TACS-Sapphire substrate for 30 mins by colorimetry
# [2] = target: T1, Poly [ADP-ribose] polymerase 1; assay: Inhibition of PARP1 at 25 uM using TACS-Sapphire substrate for 30 mins by colorimetry
# [3] = system: MEF; assay: Antiproliferative activity against wild type MEF cells assessed as cell viability after 72 hrs by MTT assay; assay type: cell-based; conditions: Mus musculus
# [4] = system: MEF; assay: Antiproliferative activity against MEF cells harboring Brca1 deletion mutant at exon 11 assessed as cell viability after 72 hrs by MTT assay; assay type: functional, cell-based; conditions: Mus musculus
# [5] = system: MEF; assay: Ratio of IC50 for wild type MEF cells to MEF cells harboring Brca1 deletion mutant at exon 11; assay type: functional, Mus musculus
# [6] = target: T1, Poly [ADP-ribose] polymerase 1; assay: Ratio of quinazoline-4(3H)-one IC50 to compound IC50 for PARP1
# T1 sequence (P09874 whole entry): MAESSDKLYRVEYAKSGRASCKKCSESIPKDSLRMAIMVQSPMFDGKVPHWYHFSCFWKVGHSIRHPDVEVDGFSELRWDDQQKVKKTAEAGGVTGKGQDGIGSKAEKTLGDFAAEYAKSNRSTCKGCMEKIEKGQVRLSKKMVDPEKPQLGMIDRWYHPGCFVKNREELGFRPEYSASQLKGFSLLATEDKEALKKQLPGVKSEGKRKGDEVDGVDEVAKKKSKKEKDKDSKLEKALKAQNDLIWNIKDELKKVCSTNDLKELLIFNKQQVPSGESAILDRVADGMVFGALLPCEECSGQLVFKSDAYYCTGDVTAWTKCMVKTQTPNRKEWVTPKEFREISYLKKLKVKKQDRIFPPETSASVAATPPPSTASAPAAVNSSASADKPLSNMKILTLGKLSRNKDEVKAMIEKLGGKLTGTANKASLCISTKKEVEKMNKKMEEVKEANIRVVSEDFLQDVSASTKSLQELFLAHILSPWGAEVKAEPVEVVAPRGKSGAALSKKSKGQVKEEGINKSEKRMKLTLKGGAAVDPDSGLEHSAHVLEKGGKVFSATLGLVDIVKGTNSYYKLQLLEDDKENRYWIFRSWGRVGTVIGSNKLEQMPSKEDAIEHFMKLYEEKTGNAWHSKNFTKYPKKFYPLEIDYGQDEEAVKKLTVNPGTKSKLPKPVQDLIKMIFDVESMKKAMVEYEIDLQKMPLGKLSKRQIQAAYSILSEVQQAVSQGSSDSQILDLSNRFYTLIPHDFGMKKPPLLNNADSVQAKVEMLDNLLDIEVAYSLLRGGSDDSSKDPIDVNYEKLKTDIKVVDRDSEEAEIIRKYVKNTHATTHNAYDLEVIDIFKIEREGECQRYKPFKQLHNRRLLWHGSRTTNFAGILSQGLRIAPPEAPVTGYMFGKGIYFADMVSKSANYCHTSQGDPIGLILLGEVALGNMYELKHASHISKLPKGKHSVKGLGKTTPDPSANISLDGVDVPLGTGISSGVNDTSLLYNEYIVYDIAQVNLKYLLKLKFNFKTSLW
Compound,pIC50 [1],inhibition [2],also measured
Cc1nc2cccc(C)c2c(=O)[nH]1,5.27,,
Cc1nc2cccc(Cl)c2c(=O)[nH]1,5.93,,
O=c1[nH]cnc2ccc(O)cc12,,40%,
Cc1cc(C)c2nc(C)[nH]c(=O)c2c1,4.88,,
Nc1cccc2c(=O)[nH]cnc12,6.12,,pIC50 [3]: < 3.22; pIC50 [4]: < 3.22
O=c1[nH]cnc2ccc(I)cc12,,40%,
Cc1ccc2c(=O)[nH]cnc2c1,,40%,
O=c1[nH]cnc2cc(C(F)(F)F)ccc12,5.12,,
O=[N+]([O-])c1cccc2c(O)ncnc12,,< 40%,
Nc1ccc2nc[nH]c(=O)c2c1,,40%,
Cc1ccc2nc[nH]c(=O)c2c1,4.60,40%,
Cc1nc(O)c2cccc(C)c2n1,6.31,,pIC50 [3]: 3.75; pIC50 [4]: 4.82; Ratio IC50 [5]: 12
O=c1[nH]cnc2cc([N+](=O)[O-])ccc12,,< 40%,
O=c1[nH]cnc2cc(F)ccc12,,< 40%,
O=c1[nH]cnc2cc(F)c(F)cc12,,< 40%,
O=c1[nH]cnc2cccc(Cl)c12,5.50,,
Cc1cccc2nc[nH]c(=O)c12,,40%,

Compound,pIC50 [1],inhibition [2],also measured
Nc1ccc2c(=O)[nH]cnc2c1,,< 40%,
O=c1[nH]cnc2ccc(Cl)cc12,4.96,,
O=[N+]([O-])c1ccc2ncnc(O)c2c1,,40%,
Cc1cc(C)c2nc[nH]c(=O)c2c1,5.86,,Ratio IC50 [6]: 4
Cc1nc2c(N)cccc2c(=O)[nH]1,6.40,,pIC50 [3]: < 3.30; pIC50 [4]: 4.31; Ratio IC50 [5]: >10
COc1cc2nc[nH]c(=O)c2cc1OC,,< 40%,
Cc1cccc2c(=O)[nH]cnc12,5.88,,Ratio IC50 [6]: 4
O=c1[nH]cnc2c(F)cccc12,4.73,,
O=c1[nH]cnc2cccc(F)c12,5.15,,
CN(C)CC(=O)Nc1ccc2[nH]c(=O)c3ccccc3c2c1 [PJ34],,,pIC50 [3]: 4.70; pIC50 [4]: 4.88
O=c1[nH]cnc2ccc(F)cc12,5.05,,
Oc1ncnc2cc(Cl)ccc12,,< 40%,
O=c1[nH]cnc2c(C(F)(F)F)cccc12,,40%,
O=c1[nH]cnc2c(Cl)cccc12,5.25,,
Cc1nc2c(Cl)cccc2c(=O)[nH]1,5.58,,
Cc1nc2cccc(F)c2c(=O)[nH]1,5.71,,
O=c1[nH]cnc2ccc([N+](=O)[O-])cc12,4.60,,
